Laboratory results as given in the NIST ThermoML archive (doi:10.1021/je9009915).

Settings: Liquid

FCC(F)(F)F [1,1,1,2-tetrafluoroethane]
Settings | vapor or sublimation pressure [kPa]
303.45 K | 775.7
308.44 K | 892.2
313.3 K | 1018.8
318.39 K | 1165.4
323.3 K | 1319
328.26 K | 1492.4
333.3 K | 1683.7
338.24 K | 1889.6
343.23 K | 2115.3
